Results published in patent US20230265116A1, “DEGRADATION OF (EGFR) BY CONJUGATION OF EGFR INHIBITORS WITH E3 LIGASE LIGAND AND METHODS OF USE” (BEIGENE, LTD., priority 2020, published 2023).
Where two headings read alike, the source gives them in different places.

Legend:
[1] = target: T1, EGFR L858R/T790M/C797S (BaF3-LTC cells) (Homo sapiens, UniProt P00533, C797S/L858R/T790M); test: EGFR degradation HTRF assay, BaF3-LTC cells; assay type: cell-based
T1 construct: expressed in transfected cells; host or cells: BaF3
In short: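 EGFR remaining after a 16 h, 37 °C exposure (8 doses, 5-fold steps from 10 uM final, 0.2% DMSO) was quantified by HTRF antibodies in cell lysate. Percent inhibition relative to DMSO control was fitted by four-parameter logistic to give DC50; Dmax denotes maximal degradation.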

[2] = test system: EGFR Del19/T790M/C797S (H1975-clone #28); test: EGFR degradation HTRF assay, H1975-clone #28 DTC cells; assay type: cell-based
In short: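 Cells were dosed on day 2 with an 8-point, 5-fold dilution series starting at 10 uM final and incubated 16h at 37° C. After lysis for 1 hour, HTRF antibodies were added overnight at room temperature and the plate was read at 665/620 nm. Degradation was normalised to DMSO wells and fitted for DC50 and Dmax.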

[3] = BaF3-LTC cells; EGFR degradation, IC50 (DC50) from curve fit; read-out: DC50(nM) BaF3-LTC
[4] = BaF3-LTC cells; maximum percentage of inhibition (degradation); read-out: Dmax (%) BaF3-LTC
[5] = H1975 # 28 DTC cells; EGFR degradation, IC50 (DC50) from curve fit; read-out: DC50(nM) H1975 # 28 DTC
[6] = H1975 # 28 DTC cells; maximum percentage of inhibition (degradation)
[7] = read-out: DC50(nM) H1975 # 28 DTC; H1975 # 28 DTC cells; EGFR degradation, IC50 (DC50) from curve fit
[8] = read-out: DC50(nM) BaF3-LTC; BaF3-LTC cells; EGFR degradation, IC50 (DC50) from curve fit
[9] = read-out: Dmax (%) BaF3-LTC, BaF3-LTC cells; maximum percentage of inhibition (degradation)

T1 sequence (P00533 25-1210 T790M/C797S/L858R): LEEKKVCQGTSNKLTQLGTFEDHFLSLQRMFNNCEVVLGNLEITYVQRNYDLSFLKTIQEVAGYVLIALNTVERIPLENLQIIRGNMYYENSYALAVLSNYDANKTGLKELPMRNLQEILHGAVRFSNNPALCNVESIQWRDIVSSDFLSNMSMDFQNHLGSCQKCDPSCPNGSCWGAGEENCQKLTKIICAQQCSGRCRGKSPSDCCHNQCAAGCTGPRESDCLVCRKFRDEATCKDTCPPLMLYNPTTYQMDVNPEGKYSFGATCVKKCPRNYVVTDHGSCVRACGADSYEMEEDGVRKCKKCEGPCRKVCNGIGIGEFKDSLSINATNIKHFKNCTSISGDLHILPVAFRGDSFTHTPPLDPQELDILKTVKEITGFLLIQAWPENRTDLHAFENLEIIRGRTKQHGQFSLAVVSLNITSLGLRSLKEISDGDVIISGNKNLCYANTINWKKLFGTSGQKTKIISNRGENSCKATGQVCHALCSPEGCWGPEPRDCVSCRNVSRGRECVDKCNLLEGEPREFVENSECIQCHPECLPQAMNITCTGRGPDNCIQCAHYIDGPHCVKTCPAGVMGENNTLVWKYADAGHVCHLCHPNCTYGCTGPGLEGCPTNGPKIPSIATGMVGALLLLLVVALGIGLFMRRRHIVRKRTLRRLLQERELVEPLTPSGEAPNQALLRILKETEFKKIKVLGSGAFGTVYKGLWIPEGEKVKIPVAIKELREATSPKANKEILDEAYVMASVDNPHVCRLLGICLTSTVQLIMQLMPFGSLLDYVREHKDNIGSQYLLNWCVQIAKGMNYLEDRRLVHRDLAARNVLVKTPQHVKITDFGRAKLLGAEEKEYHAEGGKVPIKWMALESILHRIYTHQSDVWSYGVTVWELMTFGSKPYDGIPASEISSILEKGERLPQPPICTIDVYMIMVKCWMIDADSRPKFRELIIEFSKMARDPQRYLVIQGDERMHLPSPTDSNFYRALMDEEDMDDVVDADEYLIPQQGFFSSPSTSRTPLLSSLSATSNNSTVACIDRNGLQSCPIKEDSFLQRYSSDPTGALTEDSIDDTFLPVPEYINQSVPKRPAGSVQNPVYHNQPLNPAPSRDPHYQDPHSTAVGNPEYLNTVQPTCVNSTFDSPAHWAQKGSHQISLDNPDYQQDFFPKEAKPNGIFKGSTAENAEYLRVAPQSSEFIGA

| Dmax [1, 4] | DC50 [2, 5] | SMILES | DC50 [1, 3] | Dmax (%) H1975 # 28 DTC [2, 6] | DC50 [2, 7] | DC50 [1, 8] | Dmax [1, 9] |
| --- | --- | --- | --- | --- | --- | --- | --- |
| 89.5% | 1.68 nM | CCOc1cc(N2CCC(N3CCN(C[C@H]4CCN(c5cccc6c5oc(=O)n6C5CCC(=O)NC5=O)C4)CC3)CC2)c(CC)cc1Nc1ncc(Br)c(Nc2ccc3nc(CC)ccc3c2P(C)(C)=O)n1 (stereo partly drawn) [Example 561, 3-(7-((R)-3-((4-(1-(4-((5-bromo-4-((5-(dimethylphosphoryl)-2-ethylquinolin-6-yl)amino)pyrimidin-2-yl)amino)-5-ethoxy-2-ethylphenyl)piperidin-4-yl)piperazin-1-yl)methyl)pyrrolidin-1-yl)-2-oxobenzo[d]oxazol-3(2H)-yl)piperidine-2,6-dione] | 10.3 nM | 77.5% |  |  |  |
| 90.2% | 1.54 nM | CCOc1cc(N2CCC(N3CCN(CC4CN(c5cccc6c5oc(=O)n6C5CCC(=O)NC5=O)C4)CC3)CC2)c(CC)cc1Nc1ncc(Br)c(Nc2cc(F)c3nc(CC)ccc3c2P(C)(C)=O)n1 (stereo not shown) [Example 562, 3-(7-(3-((4-(1-(4-((5-bromo-4-((5-(dimethylphosphoryl)-2-ethyl-8-fluoroquinolin-6-yl)amino)pyrimidin-2-yl)amino)-5-ethoxy-2-ethylphenyl)piperidin-4-yl)piperazin-1-yl)methyl)azetidin-1-yl)-2-oxobenzo[d]oxazol-3(2H)-yl)piperidine-2,6-dione] | 7.47 nM | 77.73% |  |  |  |
|  |  | CCOc1cc(N2CCC(N3CCN(CCc4cccc5c4oc(=O)n5C4CCC(=O)NC4=O)CC3)CC2)c(CC)cc1Nc1ncc(Br)c(Nc2ccc3nc(CC)ncc3c2P(C)(C)=O)n1 (stereo not shown) [Example 563, 3-(7-(2-(4-(1-(4-((5-bromo-4-((5-(dimethylphosphoryl)-2-ethylquinazolin-6-yl)amino)pyrimidin-2-yl)amino)-5-ethoxy-2-ethylphenyl)piperidin-4-yl)piperazin-1-yl)ethyl)-2-oxobenzo[d]oxazol-3(2H)-yl)piperidine-2,6-dione] | 7.69 nM | 81.88% | 0.732 nM |  |  |
|  |  | CCOc1cc(N2CCC(N3CCN(CCCc4cc(F)cc5c4oc(=O)n5C4CCC(=O)NC4=O)CC3)CC2)c(CC)cc1Nc1ncc(Br)c(Nc2ccc3nc(CC)ncc3c2P(C)(C)=O)n1 (stereo not shown) [Example 564, 3-(7-(3-(4-(1-(4-((5-bromo-4-((5-(dimethylphosphoryl)-2-ethylquinazolin-6-yl)amino)pyrimidin-2-yl)amino)-5-ethoxy-2-ethylphenyl)piperidin-4-yl)piperazin-1-yl)propyl)-5-fluoro-2-oxobenzo[d]oxazol-3(2H)-yl)piperidine-2,6-dione] |  | 81.87% | 1.04 nM | 7.34 nM | 93.9% |
|  |  | CCOc1cc(N2CCC(N3CCN(CCc4cc5oc(=O)n(C6CCC(=O)NC6=O)c5cc4F)CC3)CC2)c(CC)cc1Nc1ncc(Br)c(Nc2ccc3nc(CC)ncc3c2P(C)(C)=O)n1 (stereo not shown) [Example 565, 3-(6-(2-(4-(1-(4-((5-bromo-4-((5-(dimethylphosphoryl)-2-ethylquinazolin-6-yl)amino)pyrimidin-2-yl)amino)-5-ethoxy-2-ethylphenyl)piperidin-4-yl)piperazin-1-yl)ethyl)-5-fluoro-2-oxobenzo[d]oxazol-3(2H)-yl)piperidine-2,6-dione] |  | 74.32% | 0.626 nM | 3.92 nM | 93.2% |
|  |  | CCOc1cc(N2CCC(N3CCN(CC4CN(c5cccc6c5oc(=O)n6C5CCC(=O)NC5=O)C4)CC3)CC2)c(CC)cc1Nc1ncc(Br)c(Nc2ccc3nc(CC)ncc3c2P(C)(C)=O)n1 (stereo not shown) [Example 566, 3-(7-(3-((4-(1-(4-((5-bromo-4-((5-(dimethylphosphoryl)-2-ethylquinazolin-6-yl)amino)pyrimidin-2-yl)amino)-5-ethoxy-2-ethylphenyl)piperidin-4-yl)piperazin-1-yl)methyl)azetidin-1-yl)-2-oxobenzo[d]oxazol-3(2H)-yl)piperidine-2,6-dione] | 5.25 nM | 84.02% | 0.616 nM |  |  |
